pKi: −log10 of the molar value. Where a name gives a salt, the structure may show the parent alone. Read-outs that look alike come from different tables or passages of the source.
How the values were obtained:
[1] = molecular target: T1, rat GABA A receptor α5β3γ2 (Rattus norvegicus, UniProt P18508+P19969); assay: [3H]flumazenil competition binding, GABA A α5β3γ2; settings: for Ki: [3H]flumazenil 0.5 nM, SF9 cells expressing rat α5β3γ2, mean of two determinations, read-out: Ki[nM] ra5
T1 construct: expressed in transfected cells; host or cells: SF9 insect cells
Procedure: (§1) The affinity of compounds at GABA A receptor subtypes was measured by competition for [^3H]flumazenil (85 Ci/mmol; Amersham) binding to SF9 cells expressing rat receptors of composition α1β3γ2, α2β3γ2, α3β3γ2 and α5β3γ2.
(§2) Cellpellets were suspended in Krebs-tris buffer (4.8 mM KCl, 1.2 mM CaCl2, 1.2 mM MgCl2, 120 mM NaCl, 15 mM Tris; pH 7.5; binding assay buffer), homogenized by polytron for ca. 15 sec on ice and centrifuged in UZ for 30 min at 4° C. (100000 g; rotor: TFT 4594=300000 rpm). The cellpellets were resuspended in Krebs-tris buffer and homogenized by polytron for ca. 15 sec on ice. Aliquots of 1 ml were prepared, protein was measured (Bradford method) and the resulting membrane aliquots were stored at −70° C.
(§3) Radioligand binding assays were carried out in a volume of 200 μL (96-well plates) which contained 100 μL of cells, [^3H]flumazenil at a concentration of 1 nM for α1α2α3 subunits and 0.5 nM for α5 subunits and the test compound in the range of
(§4) 10^−10−3×10^−6 M. Nonspecific binding was defined by 10^−5 M diazepam and typically represented less than 5% of the total binding. Assays were incubated to equilibrium for 1 hour at 4° C. and harvested onto GF/C uni-filters (Packard) by filtration using a Packard harvester and washing with ice-cold wash buffer (50 mM Tris; pH 7.5). After drying, filter-retained radioactivity was detected by liquid scintillation counting. Ki values were calculated using Excel-Fit (Microsoft) and are the means of two determinations.

[2] = molecular target: T2, rat GABA A receptor α3β3γ2 (Rattus norvegicus, UniProt P18508+P20236); assay: [3H]flumazenil competition binding, GABA A α3β3γ2; settings: for Ki: [3H]flumazenil 1 nM, SF9 cells expressing rat α3β3γ2, mean of two determinations, read-out: Ki[nM] ra3
T2 construct: expressed in transfected cells; host or cells: SF9 insect cells
Procedure: as §1, §2, §3, §4

[3] = molecular target: T3, rat GABA A receptor α2β3γ2 (Rattus norvegicus, UniProt P18508+P23576); assay: [3H]flumazenil competition binding, GABA A α2β3γ2; settings: for Ki: [3H]flumazenil 1 nM, SF9 cells expressing rat α2β3γ2, mean of two determinations, read-out: Ki[nM] ra2
T3 construct: expressed in transfected cells; host or cells: SF9 insect cells
Procedure: as §1, §2, §3, §4

[4] = molecular target: T4, rat GABA A receptor α1β3γ2 (Rattus norvegicus, UniProt P18508+P62813); assay: [3H]flumazenil competition binding, GABA A α1β3γ2; settings: for Ki: [3H]flumazenil 1 nM, SF9 cells expressing rat α1β3γ2, mean of two determinations, read-out: Ki[nM] ra1
T4 construct: expressed in transfected cells; host or cells: SF9 insect cells
Procedure: as §1, §2, §3, §4

[5] = McNamara and Skelton, Psychobiology 21:101-108; cited from earlier work
[6] = in vivo; cited from earlier work

“3-Chloro-10-(5-cyclopropyl-1,2,4-oxadiazol-3-yl)-7-(1H-indol-3-ylmethyl)-9H-imidazo[1,5-a][1,2,4]triazolo[4,3-d][1,4]benzodiazepine [Example 61]” gave a Ki [1] of 1.3 nM, a Ki [2] of 18.9 nM and a Ki [3] of 53 nM. For the same compound, the Ki [4] was 67.3 nM.
Work on CCOC(=O)c1ncn2c1Cn1c(Cc3ccncc3)nnc1-c1cc(Cl)ccc1-2 (as salt: hydrochloride) [Example 69, Ethyl 3-chloro-7-(pyridin-4-ylmethyl)-9H-imidazo[1,5-a][1,2,4]triazolo[4,3-d][1,4]-benzodiazepine-10-carboxylate] yielded a melting point of 213 °C.
With CCOC(=O)c1ncn2c1Cn1cnnc1-c1cc(OC)ccc1-2 [Example 1, Ethyl 3-methoxy-9H-imidazo[1,5-a][1,2,4]triazolo[4,3-d][1,4]-benzodiazepine-10-carboxylate] the Ki [1] was 1.3 nM, the pKi [2] was 7.41 and the pKi [3] was 7.24. The melting point was 197 °C and the pKi [4] was 7.51.
Cc1ccc2c(c1)-c1nncn1Cc1c(-c3nc(C4CC4)no3)ncn1-2 [Example 6, 10-(3-Cyclopropyl-1,2,4-oxadiazol-5-yl)-3-methyl-9H-imidazo[1,5-a][1,2,4]triazolo[4,3-d][1,4]benzodiazepine] showed a pKi [1] of 7.97, a Ki [2] of 149 nM and a Ki [3] of 362 nM. The melting point was 253 to 256 °C and the Ki [4] was 408 nM.
In the case of CCOC(=O)c1ncn2c1Cn1cnnc1-c1cc(Cl)ccc1-2 [Example 13, Ethyl 3-chloro-9H-imidazo[1,5-a][1,2,4]triazolo[4,3-d][1,4]benzodiazepine-10-carboxylate], the Ki [1] was 1.2 nM, the pKi [2] was 7.63 and the pKi [3] was 7.26. It also gave a melting point of 226 to 227 °C and a pKi [4] of 7.46.
In the case of CCOC(=O)c1ncn2c1Cn1c(C)nnc1-c1cc(OC)ccc1-2 [Example 19, Ethyl 3-methoxy-7-methyl-9H-imidazo[1,5-a][1,2,4]triazolo[4,3-d][1,4]-benzodiazepine-10-carboxylate], the Ki [1] was 14.5 nM, the pKi [2] was 6.32 and the pKi [3] was 6.30. The melting point was 210 °C and the pKi [4] was 6.32.
With CCOC(=O)c1ncn2c1Cn1c(CO)nnc1-c1cc(OC)ccc1-2 [Example 25, Ethyl 7-hydroxymethyl-3-methoxy-9H-imidazo[1,5-a][1,2,4]triazolo[4,3-d][1,4]-benzodiazepine-10-carboxylate] the pKi [1] was 8.23, the Ki [2] was 107 nM and the Ki [3] was 123 nM. The melting point was 255 °C and the pKi [4] was 7.02.
With CCOC(=O)c1ncn2c1Cn1c(Cc3c[nH]c4c(OC)cccc34)nnc1-c1cc(OC)ccc1-2 [Example 37, Ethyl 3-methoxy-7-[(7-methoxy-1H-indol-3-yl)methyl]-9H-imidazo[1,5-a][1,2,4]triazolo[4,3-d][1,4]-benzodiazepine-10-carboxylate] the Ki [1] was 8.2 nM, the Ki [2] was 162 nM and the Ki [3] was 266 nM. The Ki [4] was 296 nM.
For CCOC(=O)c1ncn2c1Cn1c(Cc3c[nH]c4ccccc34)nnc1-c1cc(Br)ccc1-2 [Example 47, Ethyl 3-bromo-7-(1H-indol-3-ylmethyl)-9H-imidazo[1,5-a][1,2,4]triazolo[4,3-d][1,4]-benzodiazepine-10-carboxylate], the pKi [1] was 7.88, the Ki [2] was 100 nM and the Ki [3] was 225 nM. For the same compound, the melting point was 258 °C (dec.) and the Ki [4] was 694 nM.
For CCOC(=O)c1ncn2c1Cn1c(Cc3cccc(OC)c3)nnc1-c1cc(Br)ccc1-2 [Example 50, Ethyl 3-bromo-7-(3-methoxy-benzyl)-9H-imidazo[1,5-a][1,2,4]triazolo[4,3-d][1,4]-benzodiazepine-10-carboxylate], the pKi [1] was 7.84, the Ki [2] was 220 nM and the Ki [3] was 409 nM. It also gave a melting point of 111 to 113 °C and a Ki [4] of 1000 nM.
In the case of CCOC(=O)c1ncn2c1Cn1c(Cc3ccc(-c4ccccc4)cc3)nnc1-c1cc(OC)ccc1-2 [Example 54, Ethyl 3-methoxy-7-[(biphenyl-4-yl)methyl]-9H-imidazo[1,5-a][1,2,4]triazolo[4,3-d][1,4]-benzodiazepine-10-carboxylate], the pKi [1] was 7.89, the Ki [2] was 108 nM and the Ki [3] was 148 nM. For the same compound, the pKi [4] was 7.19.
Clc1ccc2c(c1)-c1nnc(Cc3ccccc3)n1Cc1c(-c3noc(C4CC4)n3)ncn1-2 [Example 63, 7-Benzyl-3-chloro-10-(5-cyclopropyl-1,2,4-oxadiazol-3-yl)-9H-imidazo[1,5-a][1,2,4]triazolo[4,3-d][1,4]benzodiazepine] gave a Ki [1] of 0.6 nM, a pKi [2] of 8.25 and a pKi [3] of 7.97. The pKi [4] was 7.90.
Compound CCOC(=O)c1ncn2c1Cn1c(Cc3ccncc3)nnc1-c1cc(Cl)ccc1-2 [Example 69, Ethyl 3-chloro-7-(pyridin-4-ylmethyl)-9H-imidazo[1,5-a][1,2,4]triazolo[4,3-d][1,4]-benzodiazepine-10-carboxylate] has a pKi [1] of 8.15, a Ki [2] of 158 nM and a Ki [3] of 308 nM. The Ki [4] was 360 nM.
In the case of COC(=O)c1cc2c(cn1)[nH]c1ccccc12 [β-CCM], the “spatial learning in the Morris watermaze” value [5] is listed as “enhance spatial learning” and the “proconvulsant or convulsant activity” value [6] is listed as “proconvulsant or convulsant”.
“Ethyl 3-methoxy-7-(1H-indol-3-ylmethyl)-9H-imidazo[1,5-a][1,2,4]triazolo[4,3-d][1,4]-benzodiazepine-10-carboxylate [Example 20]” showed a Ki [1] of 10.7 nM, a Ki [2] of 191 nM and a Ki [3] of 284 nM. It also gave a Ki [4] of 803 nM.
